Measured values taken from patent US6608103B2, “Inhibitor for neovasculation, cell multiplication, lumen formation and FGF” (Fuji Chemical Industry Co., Ltd., priority 2001, dated 2003).
Entries after “also recorded” stand apart in the source; their conditions may differ.

Experiments:
Assay type in all cases: cell-based, bovine
[1] = test system: BAEC; assay: Cell multiplication of BAEC, survival rate of cells using WST-1; conditions: for Survival Rate of Cells (% of control): 24 hours, WST-1; for IC50: determined from the graph of FIG. 1 (abscissa μM), read-out: median growth inhibition concentration (IC50)
Procedure: Influence of tocotrienols on cell multiplication of BAEC was examined in various concentrations. The cell multiplication was evaluated by determining the survival rate of cells using WST-1, which makes it possible to conduct high sensitivity measurement, instead of conventional MTT.
As a blank, the culture medium alone was incubated without adding cells. […] The microplate was taken out after 24 hours from placing the culture medium containing a sample. 10 μl/well of WST-1 solution was added to each well, and incubated in a CO2 incubator. After 3 hours, absorbance at 450 nm and 655 nm (dual) of each well was measured by a microplate reader.
The samples employed were DL-α-tocotrienol, DL-γ-tocotrienol and DL-δ-tocotrienol. In the case of Control group I, no sample was added.
The survival rate of cells was determined by the following formula:
Survival Rate of Cells=(S−B)/(C−B)×100(%)
The results of Table 10 were made in a graph shown in FIG. 1, and median growth inhibition concentration (IC50) was determined from the graph. In the figure, the numbers on the ordinate indicate the survival rate of cells (% of control), and the numbers on the abscissa indicate concentration (μM). ● is DL-α-tocotrienol, ▪ is DL-β-tocotrienol, Δ is DL-γ-tocotrienol, and X is DL-δ-tocotrienol, respectively.

[2] = test system: BAEC; assay: Neovasculation / lumen formation of BAEC between two layers of type I collagen gel
Procedure: BAEC was cultured between two layers of type I collagen gel, and a lumen-like netting structure formed therebetween was evaluated.
(§1) Eight parts by volume of “Vitrogen Collagen” (Collagen Co.), 1 part by volume of 0.1 N NaOH and 1 part by volume of ×10 MEM (GIBCO BRL) were placed in a tube, and mixed quickly in an ice bath. The culture solution was removed by suction, and 0.5 ml/well of the above mixture containing collagen was pipetted into each well. The microplate was placed in a CO2 incubator for about 30 minutes to gelatinize it. 1.5 ml of a medium (MEM | 2% FBS) containing a sample was added, and continued to incubate while changing the medium every second day.
(§2) The variation of cells were observed by a microscope by taking a photograph, and lumen formation was evaluated by counting the number of branches of cells forming lumen.
The inhibition test against lumen formation was carried out in the same manner as Example 15, except that α-tocopherol was substituted for DL-α-tocotrienol.

[3] = test system: BAEC; assay: Effects of tocotrienols on multiplication of BAEC, MTT assay; conditions: for Absorbance: MTT; for inhibitory action against cell multiplication: Table 1
Procedure: Normal bovine aortic endothelial cells (BAEC) were manufactured by Cell Systems Co., and purchased through Dainippon Seiyaku Co., Ltd.
A cell suspension was prepared by adding the cells to MEM (Sigma Chemical Co.) containing 10 v/v (%) fetal bovine serum (FBS), 20 IU/ml penicillin and 20 IU/ml streptomycin (MEM+10% FBS) in a concentration of 1×10^5 cells/ml, and cultured in a 5% CO2 incubator at 37° C. by using a 60 mm dish coated with type I collagen with subculturing every 2 to 3 days.
Each of the above samples was added to MEM containing 2% (v/v) FBS, 20 IU/ml penicillin and 20 IU/ml streptomycin (MEM+2% FBS), and subjected to testing.
Effects of tocotrienols on the multiplication of BAEC were examined by using MTT assay.
(§3) Each one microplate was taken out after 0, 24, 48 or 96 hours from placing the culture medium containing a sample. In the case of the microplate taken out after 96 hours, the culture medium was once changed after 48 hours. 3 mg/ml MTT solution PBS (−) was put in each well in an amount of 50 μl/well, and incubated for 3 hours in a CO2 incubator. After filling each well with phosphate buffered saline (PBS(−)), liquid in each well was evacuated, and isopropyl alcohol containing 0.04 mol/l HCL was put in each well in an amount of 200 μl/well. The microplates were allowed to stand overnight in a dark place, and then, absorbance at 595 nm and 655 nm (dual) was measured by a microplate reader.
In the case of Control group A, no sample was added.

[4] = test system: BAEC; assay: Inhibitory action against FGF activity, MTT assay on BAEC with FGF 20 ng/ml; set-up: key to Cell Multiplication: ↑: Accelerated; /: Tendency to increase; No change; ↓: Inhibited; ↓↓: Strongly inhibited; conditions: for Absorbance: MTT; for Cell Multiplication: summary
Procedure: The fibroblast growth factor sample was prepared by dissolving a commercial FGF (Sigma Chemical Co.) in MEM (Sigma Chemical Co.)
as §3
In the case of Control group B, no sample was added.

[5] = test system: BAEC; assay: Inhibition against lumen formation induced by FGF; set-up: key to Lumen Formation: ↑: Accelerated; /: Tendency to increase; No change; ↓: Inhibited; ↓↓: Strongly inhibited; conditions: for Lumen Formation: summary
Procedure: as §1, §2
The test was carried out similar to Examples 12-14, wherein FGF was added together with each tocotrienol. In the case of Control group E, no sample was added. […]

[6] = 0 hr, FGF 20 ng/ml + sample 10 μM
[7] = 24 hrs, FGF 20 ng/ml + sample 10 μM
[8] = 48 hrs, FGF 20 ng/ml + sample 10 μM
[9] = 96 hrs, FGF 20 ng/ml + sample 10 μM
[10] = FGF (20 ng/ml) + sample (10 μM)
[11] = FGF (20 ng/ml) + sample (100 μM)

Structure (SMILES)	IC50 [1] [µM]	inhibition of lumen formation ([2]; 10 μM)	Number of Cells Forming Lumen/cm^2 ([2]; Table 4, 10 μM)	Absorbance ([3]; 0 hr, sample 10 μM)	Absorbance ([3]; 24 hrs, sample 10 μM)	Absorbance ([3]; 48 hrs, sample 10 μM)	Absorbance ([3]; 96 hrs, sample 10 μM)	Absorbance [4, 6]	Absorbance [4, 7]	Absorbance [4, 8]	Absorbance [4, 9]	Cell Multiplication [4, 10]	inhibition of lumen formation induced by FGF ([5]; 10 μM + FGF 20 ng/ml)	Number of Cells Forming Lumen/cm^2 ([5]; sample 10 μM + FGF 20 ng/ml)	Lumen Formation [5, 10]	Survival Rate of Cells (% of control) ([1]; 2 μM)	Survival Rate of Cells (% of control) ([1]; 4 μM)	Survival Rate of Cells (% of control) ([1]; 6 μM)	Survival Rate of Cells (% of control) ([1]; 8 μM)	Survival Rate of Cells (% of control) ([1]; 10 μM)	further results
CC(C)=CCC/C(C)=C/CC/C(C)=C/CC[C@]1(C)CCc2c(C)c(O)c(C)c(C)c2O1 (racemic) [DL-α-Tocotrienol, α-tocotrienol]	38	equivalent to the control group	39.25 ± 1.84 /cm^2	0.090 ± 0.003	0.141 ± 0.008	0.271 ± 0.010	0.382 ± 0.014	0.044 ± 0.002	0.096 ± 0.004	0.290 ± 0.010	0.328 ± 0.018	↑	inhibited the lumen formation induced by FGF	25.25 ± 1.55 /cm^2	→						Survival Rate of Cells (% of control) ([1]; 25 μM): 111.0 ± 6.8 % of control; Survival Rate of Cells (% of control) ([1]; 30 μM): 115.8 ± 9.2 % of control; Survival Rate of Cells (% of control) ([1]; 35 μM): 67.3 ± 11.6 % of control; Survival Rate of Cells (% of control) ([1]; 40 μM): 39.1 ± 12.7 % of control; Survival Rate of Cells (% of control) ([1]; 45 μM): 6.9 ± 5.9 % of control; inhibition of lumen formation ([2]; 50 μM): completely inhibited formation; Number of Cells Forming Lumen/cm^2 ([2]; Table 4, 30 μM): 31.75 ± 1.25 /cm^2; Number of Cells Forming Lumen/cm^2 ([2]; Table 4, 50 μM): 0.00 ± 0.00 /cm^2; Number of Cells Forming Lumen/cm^2 ([2]; Table 4, 100 μM): 39.25 ± 2.17 /cm^2
CC(C)=CCC/C(C)=C/CC/C(C)=C/CC[C@]1(C)CCc2c(C)c(O)cc(C)c2O1 (racemic) [DL-β-Tocotrienol, β-tocotrienol]	6.5			0.084 ± 0.002	0.029 ± 0.004	0.39 ± 0.007	0.011 ± 0.002	0.042 ± 0.002	0.036 ± 0.003	0.055 ± 0.005	0.039 ± 0.004	↓↓	inhibited the lumen formation completely; also recorded: exhibit inhibitory action against lumen formation	0.00 ± 0.00 /cm^2	↓↓	89.4 ± 5.1 % of control	97.8 ± 7.9 % of control	57.1 ± 5.9 % of control	5.6 ± 5.4 % of control	0.0 ± 0.0 % of control	inhibitory action against cell multiplication ([3]; 10 μM): remarkable inhibitory action
CC(C)=CCC/C(C)=C/CC/C(C)=C/CC[C@]1(C)CCc2cc(O)cc(C)c2O1 (racemic) [DL-δ-Tocotrienol, δ-tocotrienol]	5.5	inhibited lumen formation completely	0.00 ± 0.00 /cm^2	0.103 ± 0.001	0.004 ± 0.000	0.003 ± 0.000	0.002 ± 0.000	0.040 ± 0.002	0.003 ± 0.000	0.003 ± 0.000	0.003 ± 0.000	↓↓	inhibited the lumen formation completely; also recorded: exhibit inhibitory action against lumen formation	0.00 ± 0.00 /cm^2	↓↓	93.0 ± 6.8 % of control	109.4 ± 8.0 % of control	0.9 ± 1.3 % of control	5.8 ± 4.5 % of control	0.4 ± 0.9 % of control	inhibitory action against cell multiplication ([3]; 10 μM): remarkable inhibitory action
Cc1c(C)c2c(c(C)c1O)CC[C@@](C)(CCC[C@H](C)CCC[C@H](C)CCCC(C)C)O2 [α-Tocopherol, α-tocopherol, reference compound]																					inhibition of lumen formation ([2]; 100 μM): did not inhibit lumen formation; inhibitory action against cell multiplication ([3]; 100 μM): does not exhibit inhibitory action; Absorbance ([3]; 0 hr, sample 100 μM): 0.092 ± 0.003; Absorbance ([3]; 24 hrs, sample 100 μM): 0.140 ± 0.003; Absorbance ([3]; 48 hrs, sample 100 μM): 0.268 ± 0.004; Absorbance ([3]; 96 hrs, sample 100 μM): 0.520 ± 0.012; Absorbance ([4]; 0 hr, FGF 20 ng/ml + sample 100 μM): 0.045 ± 0.002; Absorbance ([4]; 24 hrs, FGF 20 ng/ml + sample 100 μM): 0.080 ± 0.004; Absorbance ([4]; 48 hrs, FGF 20 ng/ml + sample 100 μM): 0.242 ± 0.014; Absorbance ([4]; 96 hrs, FGF 20 ng/ml + sample 100 μM): 0.360 ± 0.020; Cell Multiplication [4, 11]: ↑; inhibition of lumen formation induced by FGF ([5]; 100 μM + FGF 20 ng/ml): not found; Number of Cells Forming Lumen/cm^2 ([5]; sample 100 μM + FGF 20 ng/ml): 25.25 ± 2.10 /cm^2; Lumen Formation [5, 11]: →
